Active and inactive are the calls of the source. No cut-off for these calls is given here.
Assays:
dengue virus type 2 [1] = test: Antiviral activity against DENV-2 16,681 infected in Vero E6 cells assessed as reduction in virus induced cytopathic effect at 10 uM incubated for 4 days by inverted microscopic analysis; format: functional, organism-based; details: time 4.0 day
dengue virus type 2 [2] = test: Antiviral activity against DENV-2 16,681 infected in Vero E6 cells assessed as reduction in viral infection by measuring NS4B positive cells at 10 uM incubated for 4 days by immunofluorescence assay; format: functional; design: scale not given: the % may be the effect or the level left; details: time 4 day
[3] = Cytotoxicity against human A549 cells by MTT assay; format: toxicity, cell-based
Genome polyprotein = Genome polyprotein (dengue virus type 2, UniProt P29990); test: Inhibition of DENV-2 NS2B/NS3 protease expressed in HEK293 cells cotransfected with CFP-trrg-YFP incubated for 24 hrs by FRET assay; format: cell-based
dengue virus type 2 [4] = test: Antiviral activity against DENV-2 16,681 infected in Vero E6 cells assessed as reduction in viral infectivity by measuring NS4B-positive cells pretreated with compound for 1 hr followed by viral infection and washout measured after 96 hrs by immunofluorescence analysis; format: functional, organism-based; details: Dengue virus, 16,681, Vero C1008
dengue virus type 2 [5] = test: Antiviral activity against DENV-2 16,681 infected in Vero E6 cells assessed as reduction in viral infectivity by measuring NS4B-positive cells incubated for 1 hr followed by washout and subsequent culturing; format: functional, organism-based; details: Dengue virus, 16,681, Vero C1008, 1 h
[6] = Cytotoxicity against african green monkey Vero E6 cells by MTT assay; format: toxicity, cell-based, Vero C1008; details: chlorocebus sabaeus
dengue virus type 2 [7] = test: Antiviral activity against DENV-2 16,681 infected in Vero E6 cells assessed as reduction in viral infectivity by measuring NS4B-positive cells at 10 uM pretreated with compound for 1 hr followed by viral infection and washout measured after 96 hrs by immunofluorescence analysis; format: functional; design: scale not given: the % may be the effect or the level left
[8] = Selectivity index, ratio of CC50 for human A549 cells to EC50 for antiviral activity against DENV-2 16,681 infected in A549 cells; format: toxicity, cell-based; details: read-out: Ratio CC50/EC50
dengue virus type 2 [9] = test: Antiviral activity against DENV-2 16,681 infected in A549 cells assessed as reduction in virus induced cytopathic effect measured after 96 hrs by inverted microscopic analysis; format: functional, organism-based; details: Dengue virus, 16,681, A549, 96 h
dengue virus type 2 [10] = test: Antiviral activity against DENV-2 16,681 infected in Vero E6 cells assessed as reduction in viral infectivity by measuring NS4B-positive cells at 0.1 uM incubated for 1 hr followed by washout and measured after 96 hrs by immunofluorescence analysis; format: functional; design: scale not given: the % may be the effect or the level left
[11] = Selectivity index, ratio of CC50 for african green monkey Vero E6 cells to EC50 for antiviral activity against DENV-2 16,681 infected in Vero E6 cells; format: toxicity, cell-based; details: read-out: Ratio CC50/EC50
dengue virus type 2 [12] = test: Antiviral activity against DENV-2 16,681 infected in Vero E6 cells assessed as reduction in viral infectivity by measuring NS4B-positive cells incubated for 1 hr followed by washout and measured after 96 hrs by immunofluorescence analysis; format: functional, organism-based; details: Dengue virus, 16,681, Vero C1008
dengue virus type 2 [13] = test: Antiviral activity against DENV-2 16,681 infected in Vero E6 cells assessed as reduction in viral infectivity by measuring NS4B-positive cells pretreated with virus for 1 hr followed by compound addition for 1 hr prior to washout and measured after 96 hrs by immunofluorescence analysis; format: functional, organism-based; details: Dengue virus, 16,681, Vero C1008
dengue virus type 2 [14] = test: Antiviral activity against DENV-2 16,681 infected in Vero E6 cells assessed as reduction in viral infectivity by measuring NS4B-positive cells at 1 uM pretreated with virus for 1 hr followed by compound addition for 1 hr prior to washout and measured after 96 hrs by immunofluorescence analysis; format: functional
dengue virus type 2 [15] = test: Antiviral activity against DENV-2 16,681 infected in Vero E6 cells assessed as reduction in virus induced cytopathic effect measured after 96 hrs by inverted microscopic analysis; format: functional, organism-based; details: Dengue virus, 16,681, Vero C1008, 96 h

Compound | Activity (dengue virus type 2 [1]) | Activity (dengue virus type 2 [2]) | CC50 [3] | IC50 (Genome polyprotein) | EC50 (dengue virus type 2 [4]) | EC50 (dengue virus type 2 [5]) | CC50 [6] | Activity (dengue virus type 2 [7]) | selectivity ratio [8] | EC50 (dengue virus type 2 [9]) | Activity (dengue virus type 2 [10]) | selectivity ratio [11] | EC50 (dengue virus type 2 [12]) | EC50 (dengue virus type 2 [13]) | Activity (dengue virus type 2 [14]) | EC50 (dengue virus type 2 [15])
CN1C[C@H]2C[C@H](Cn3c2cccc3=S)C1=S | Active | 60% |  |  |  |  |  |  |  |  |  |  |  |  |  | 
CN1C[C@@H]2C[C@H](C1)c1cccc(=S)n1C2 | Active | 88.7% | > 50000 nM | 13500 nM | > 10000 nM | 1020 nM | > 50000 nM | <40% | > 23.7 | 2110 nM | >50% | > 53.2 | 110 nM | 4080 nM | inactive | 940 nM
CN1C[C@@H]2C[C@H](C1=S)c1cccc(=S)n1C2 | Active | 61% |  |  |  |  |  |  |  |  |  |  |  |  |  | 
CN1C[C@H]2C[C@H](Cn3c2cccc3=O)C1=S | Active | 64.9% |  |  |  |  |  |  |  |  |  |  |  |  |  | 
CN1C[C@@H]2C[C@H](C1=S)c1cccc(=O)n1C2 | Active | 95% | > 50000 nM | 2760 nM | > 10000 nM | 100 nM | > 50000 nM | <40% | > 25000 | 2 nM | >50% | > 10000 | 20 nM | 670 nM | >60% | 5 nM
